{"source": "PubChem BioAssay AID248", "about": "(DTP/NCI, 2004)", "tested_on": "L1210 leukemia ip in BDF1 mice, survival T/C", "test": "NCI In Vivo Anticancer Drug Screen. Data for tumor model L1210 Leukemia (intraperitoneal) in B6D2F1 (BDF1) mice", "settings": "endpoint: mean survival time, higher = longer survival", "summary_of_the_method": "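Each compound was tested against a transplantable tumor grown in mice. The endpoint was survival, with treated animals benchmarked against vehicle controls as a simple ratio.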", "key": {"[1]": {"settings": "dose: 100.0 mg/kg/injection, schedule: Q04DX002 (ip), vehicle: Klucel (hydroxypropylcellulose) (HPC)"}, "[2]": {"settings": "dose: 200.0 mg/kg/injection, schedule: Q04DX002 (ip), vehicle: Klucel (hydroxypropylcellulose) (HPC)"}, "[3]": {"settings": "dose: 400.0 mg/kg/injection, schedule: Q04DX002 (ip), vehicle: Klucel (hydroxypropylcellulose) (HPC)"}, "[4]": {"settings": "dose: 100.0 mg/kg/injection, schedule: Q04DX003 (ip), vehicle: Klucel (hydroxypropylcellulose) (HPC)"}}, "note": "“And” between values parts separate entries of the source, which are not always exact repeats. Equal values may be shown once. Toxic doses and inconclusive results are not listed. Peptide text beside a SMILES is read from it. * marks the point of attachment. Cbz = O=C(OCc1ccccc1)*; CH2Cl = ClC*"}
{"compound": "Cc1ccc([N+](=O)[O-])cc1NC(=O)Nc1ccccc1C(N)=O", "values": [{"measurement": "T/C", "setting": "[1]", "value": "114 % of control"}, {"measurement": "T/C", "setting": "[2]", "value": "103 % of control"}, {"measurement": "T/C", "setting": "[3]", "value": "94 % of control"}]}
{"compound": "COC(=O)c1cn2ccc(C#N)cc2c1C(=O)OC", "values": [{"measurement": "T/C", "setting": "dose: 100.0 mg/kg/injection, schedule: Q04DX002 (ip), vehicle: saline with Tween-80", "value": "89 % of control"}, {"measurement": "T/C", "setting": "dose: 200.0 mg/kg/injection, schedule: Q04DX002 (ip), vehicle: saline with Tween-80", "value": "95 % of control"}, {"measurement": "T/C", "setting": "dose: 400.0 mg/kg/injection, schedule: Q04DX002 (ip), vehicle: saline with Tween-80", "value": "95 % of control"}]}
{"compound": "Nc1nc(N)c2nc(CSc3ccccc3)cnc2n1", "values": [{"measurement": "T/C", "setting": "dose: 20.0 mg/kg/injection, schedule: Q01DX009 (ip), vehicle: saline with Tween-80", "value": "97 % of control"}, {"measurement": "T/C", "setting": "dose: 40.0 mg/kg/injection, schedule: Q01DX009 (ip), vehicle: saline with Tween-80", "value": "97 % of control"}, {"measurement": "T/C", "setting": "dose: 80.0 mg/kg/injection, schedule: Q01DX009 (ip), vehicle: saline with Tween-80", "value": "94 % of control"}]}
{"compound": "C/C(=N\\N=C(/C)c1ccc(O)cc1)c1ccc(O)cc1", "values": [{"measurement": "T/C", "setting": "dose: 50.0 mg/kg/injection, schedule: Q01DX009 (ip), vehicle: saline with Tween-80", "value": "96 % of control"}, {"measurement": "T/C", "setting": "dose: 100.0 mg/kg/injection, schedule: Q01DX009 (ip), vehicle: saline with Tween-80", "value": "92 % of control"}, {"measurement": "T/C", "setting": "dose: 200.0 mg/kg/injection, schedule: Q01DX009 (ip), vehicle: saline with Tween-80", "value": "89 % of control"}]}
{"compound": "CCOP(=O)(OCC)O/N=C(/c1ccccc1)C(C)C", "values": [{"measurement": "T/C", "setting": "dose: 5.0 mg/kg/injection, schedule: Q01DX001 (ip), vehicle: saline", "value": "98 % of control"}, {"measurement": "T/C", "setting": "dose: 10.0 mg/kg/injection, schedule: Q01DX001 (ip), vehicle: saline", "value": "98 % of control"}, {"measurement": "T/C", "setting": "dose: 20.0 mg/kg/injection, schedule: Q01DX001 (ip), vehicle: saline", "value": "93 % of control"}, {"measurement": "T/C", "setting": "dose: 40.0 mg/kg/injection, schedule: Q01DX001 (ip), vehicle: saline", "value": "100 % of control"}]}
{"compound": "CCCNC(=O)Oc1ccc(Nc2ccccc2)cc1", "values": [{"measurement": "T/C", "setting": "[1]", "value": "118 % of control"}, {"measurement": "T/C", "setting": "[2]", "value": "103 % of control"}, {"measurement": "T/C", "setting": "[3]", "value": "107 % of control"}]}
{"compound": "CN=C(NC)c1ccc(NC(=O)c2ccc(C(=O)Nc3ccc(C(=NC)NC)cc3)c(N)c2)cc1", "values": [{"measurement": "T/C", "setting": "dose: 0.28 mg/kg/injection, schedule: Q01DX Z (ip), vehicle: water", "value": "98 % of control"}, {"measurement": "T/C", "setting": "dose: 0.56 mg/kg/injection, schedule: Q01DX Z (ip), vehicle: water", "value": "93 % of control"}, {"measurement": "T/C", "setting": "dose: 1.12 mg/kg/injection, schedule: Q01DX Z (ip), vehicle: water", "value": "170 % of control"}, {"measurement": "T/C", "setting": "dose: 2.25 mg/kg/injection, schedule: Q01DX Z (ip), vehicle: water", "value": "157 % of control"}, {"measurement": "T/C", "setting": "dose: 4.5 mg/kg/injection, schedule: Q01DX Z (ip), vehicle: carboxymethylcellulose (CMC)", "value": "180 % of control"}, {"measurement": "T/C", "setting": "dose: 9.0 mg/kg/injection, schedule: Q01DX Z (ip), vehicle: carboxymethylcellulose (CMC)", "value": "159 % of control"}, {"measurement": "T/C", "setting": "dose: 36.0 mg/kg/injection, schedule: Q01DX Z (ip), vehicle: carboxymethylcellulose (CMC)", "value": "117 % of control"}, {"measurement": "T/C", "setting": "dose: 50.0 mg/kg/injection, schedule: Q01DX Z (oral), vehicle: water", "value": "102 % of control"}, {"measurement": "T/C", "setting": "dose: 100.0 mg/kg/injection, schedule: Q01DX Z (oral), vehicle: water", "value": "105 % of control"}, {"measurement": "T/C", "setting": "dose: 200.0 mg/kg/injection, schedule: Q01DX Z (oral), vehicle: water", "value": "103 % of control"}, {"measurement": "T/C", "setting": "dose: 400.0 mg/kg/injection, schedule: Q01DX Z (oral), vehicle: water", "value": "103 % of control"}]}
{"compound": "CC(=O)Oc1ccc(OC(C)=O)c2c1C(=O)c1ccccc1C2=O", "values": [{"measurement": "T/C", "setting": "dose: 50.0 mg/kg/injection, schedule: Q01DX001 (ip), vehicle: carboxymethylcellulose (CMC)", "value": "104 % of control"}, {"measurement": "T/C", "setting": "dose: 100.0 mg/kg/injection, schedule: Q01DX001 (ip), vehicle: carboxymethylcellulose (CMC)", "value": "110 % of control"}, {"measurement": "T/C", "setting": "dose: 200.0 mg/kg/injection, schedule: Q01DX001 (ip), vehicle: carboxymethylcellulose (CMC)", "value": "102 % of control"}, {"measurement": "T/C", "setting": "dose: 400.0 mg/kg/injection, schedule: Q01DX001 (ip), vehicle: carboxymethylcellulose (CMC)", "value": "110 % of control"}]}
{"compound": "CC(C)CC(NC(=O)OCc1ccccc1)C(=O)NC(Cc1ccccc1)C(=O)CCl", "note": "(stereo not drawn) (Cbz-Leu-Phe-CH2Cl; configuration not given here)", "values": [{"measurement": "T/C", "setting": "dose: 25.0 mg/kg/injection, schedule: Q04DX003 (ip), vehicle: Klucel (hydroxypropylcellulose) (HPC)", "value": "104 % of control"}, {"measurement": "T/C", "setting": "dose: 50.0 mg/kg/injection, schedule: Q04DX003 (ip), vehicle: Klucel (hydroxypropylcellulose) (HPC)", "value": "102 % of control"}, {"measurement": "T/C", "setting": "dose: 100.0 mg/kg/injection, schedule: Q01DX001 (ip), vehicle: Klucel (hydroxypropylcellulose) (HPC)", "value": "90 % of control"}, {"measurement": "T/C", "setting": "[4]", "value": "96 % of control and 89 % of control"}, {"measurement": "T/C", "setting": "dose: 200.0 mg/kg/injection, schedule: Q01DX001 (ip), vehicle: Klucel (hydroxypropylcellulose) (HPC)", "value": "88 % of control"}, {"measurement": "T/C", "setting": "dose: 400.0 mg/kg/injection, schedule: Q01DX001 (ip), vehicle: Klucel (hydroxypropylcellulose) (HPC)", "value": "103 % of control"}]}
{"compound": "CCOC(=O)C1=C(C)NC(C)=C(C(=O)OCC)C1c1cccc([N+](=O)[O-])c1", "values": [{"measurement": "T/C", "setting": "[4]", "value": "100 % of control"}, {"measurement": "T/C", "setting": "dose: 200.0 mg/kg/injection, schedule: Q04DX003 (ip), vehicle: Klucel (hydroxypropylcellulose) (HPC)", "value": "105 % of control"}, {"measurement": "T/C", "setting": "dose: 400.0 mg/kg/injection, schedule: Q04DX003 (ip), vehicle: Klucel (hydroxypropylcellulose) (HPC)", "value": "108 % of control"}]}
